Source: patent publication US8614247B2, “Methods for preventing, attenuating or treating pulmonary hypertension using a serotonin transporter inhibitor, and pharmaceutical compositions for the treatment thereof” (Institut National de la Sante et de la Recherche Medicale, priority 2003, dated 2013)

Columns and labels:
mice in normoxia = test: Physiological parameters during normoxia after treatment; type: in vivo, mice (C57BL6/J); settings: control mice 88±7 mmHg
experimental hypoxic PH = settings: previous studies (Eddahibi, Raffestin et al. 1998); cited from earlier work
[1] = tested on: human pulmonary artery smooth muscle cells (PA-SMCs); test: 5-HT-induced proliferation of human PA-SMCs ([3H]thymidine incorporation); type: cell-based; settings: cells in 0.2% FCS; for 5-HT-induced increase in [3H]thymidine incorporation (mitogenic response to 5-HT): drug at 10^−5 M, added before 5-HT
Procedure: Effect of 5-HT on the Proliferation of Human Pulmonary Artery Smooth Muscle Cells (PA-SMCs)
The methods used for the culture and the characterization of human PA-SMCs have been previously described (Eddahibi, Humbert et al. 2001). In brief, PA-SMCs were obtained from patients undergoing lung resection for cancer. They were seeded in 24-well plates at a density of 5×10^4 cells/well and allowed to adhere in DMEM supplemented with 15% fœtal calf serum (FCS). Cells were then subjected to 48 h of growth arrest in medium containing only 0.2% FCS before being incubated in DMEM supplemented with 0.2% FCS, 0.6 mM of ascorbic acid, 0.1 mM of iproniazid (a monoamine oxidase inhibitor), 0.6 μCi/mL of [^3H]thymidine, with or without 5-HT (10^−8 to 10^−6 M). […] Each of these drugs was added 20 min before 5-HT. After incubation for 24 hours, cells were washed twice with PBS, treated with ice-cold 10% trichloroacetic acid (1 ml/well), and dissolved in 0.1 N NaOH (0.5 ml/well). The incorporated radioactivity was counted and reported as cpm per well.

[2] = tested on: mice exposed to acute hypoxia; test: Hemodynamic response (RVSP) of normoxic mice to acute hypoxia; type: in vivo, mice (C57BL6/J); settings: two-day pretreatment; for pressure (RVSP) response to acute hypoxia: antagonists 2 mg/kg/day i.p., compared with vehicle-treated controls
Procedure: All experiments were performed using adult male mice (C57BL6/J, 8 weeks old) in conformity with the institutional guidelines that are in compliance with national and international laws and policies.
Mice were anaesthetized with ketamine (60 mg/kg, i.p) and xylazine (10 mg/kg, i.p). The trachea was cannulated, and the lungs were ventilated with room air at a tidal volume of 0.2 ml and a rate of 90 breaths per minute. Systemic arterial pressure was determined by catheterization of the carotid artery. A 26-gauge needle was then introduced percutaneously into the right ventricle via the subxyphoid approach. Right ventricular systolic pressure (RVSP) was measured using a Gould P10 EZ pressure transducer connected to pressure modules and a Gould TA 550 recorder. RVSP and heart rate were recorded first while the animal was ventilated with room air and then after 5 min of ventilation with hypoxic gas mixture (8% O2, 92% N2). […] If the heart rate fell below 300 bpm, measurements were excluded from analysis.
To investigate the effects of 5-HTT inhibition and/or 5-HT receptor blockade on acute hypoxic vasoconstriction, nine groups of mice (6-7 in each group) were studied. […] The last group consisted of control animals that received distilled water by gavage. The treatments were performed for two days and acute hypoxic vasoconstriction was measured on the following day one hour after the last treatment.

[3] = tested on: mice exposed to chronic hypoxia; type: in vivo, mice (C57BL6/J); settings: for muscularization of distal pulmonary vessels: vs control mice under similar hypoxic conditions; for hypoxia-induced increase in RVSP: 2-week hypoxia (10% O2), daily treatment: citalopram, fluoxetine 10 mg/kg/day, ketanserin 2 mg/kg/day, GR127935 2 or 10 mg/kg/day, vs vehicle
Procedure: All experiments were performed using adult male mice (C57BL6/J, 8 weeks old) in conformity with the institutional guidelines that are in compliance with national and international laws and policies. […] To establish the hypoxic environment, the chamber was flushed with a mixture of room air and nitrogen, and the gas was recirculated. The chamber environment was monitored using an oxygen analyzer (Servomex OA150, Crowborough, England). Carbon dioxide was removed by soda lime granules, and excess humidity was prevented by cooling the recirculation circuit. The chamber temperature was maintained at 22-24° C. The chamber was opened every other day for 1 hour to clean the cages and replenish food and water supplies. Normoxic mice were kept in the same room, with the same light-dark cycle. […] After incision of the abdomen and diaphragm, a 26-gauge needle connected to a pressure transducer was inserted into the right ventricle, and RVSP was recorded immediately. Blood was then sampled for hematocrit determination. […] The right ventricle (RV) was dissected from the left ventricle+septum (LV+S), and these dissected samples were weighed. The lungs were fixed by intratracheal infusion of 4% aqueous buffered formalin at a pressure of 23 cm H2O. The entire specimen was immersed in a bath of the same fixative for one week. A midsagittal slice of the right lung including the apical, azygous and diaphragmatic lobes was processed for paraffin embedding. Sections (5 μm thick) were cut for light microscopy and stained with hematoxylin-phloxin-saffron and orcein-picroindigo-carmine. In each mouse, a total of 50-60 […] vessels accompanying either alveolar ducts or alveoli were analyzed by an observer blinded to treatment. Each vessel was categorized as nonmuscular (no evidence of any vessel wall muscularization), partially muscular (SMCs identifiable in less than three-fourths of the vessel circumference), or fully muscular (SMCs in more than three-fourths of the vessel circumference). […] The percentage of pulmonary vessels in each muscularization category was determined by dividing the number of vessels in that category by the total number counted in the same experimental group. […] The animals were treated once a day during the two-week exposure to hypoxia.

rats = settings: Keegan et al. 2001; cited from earlier work
5-HTT = 5-HTT (Rattus norvegicus, UniProt P31652); settings: cited from earlier work
[4] = tested on: rat lung SMC and lung fibroblasts; settings: cited from earlier work
[5] = 2-week chronic hypoxia, daily treatment

Chain of 5-HTT (P31652 whole entry): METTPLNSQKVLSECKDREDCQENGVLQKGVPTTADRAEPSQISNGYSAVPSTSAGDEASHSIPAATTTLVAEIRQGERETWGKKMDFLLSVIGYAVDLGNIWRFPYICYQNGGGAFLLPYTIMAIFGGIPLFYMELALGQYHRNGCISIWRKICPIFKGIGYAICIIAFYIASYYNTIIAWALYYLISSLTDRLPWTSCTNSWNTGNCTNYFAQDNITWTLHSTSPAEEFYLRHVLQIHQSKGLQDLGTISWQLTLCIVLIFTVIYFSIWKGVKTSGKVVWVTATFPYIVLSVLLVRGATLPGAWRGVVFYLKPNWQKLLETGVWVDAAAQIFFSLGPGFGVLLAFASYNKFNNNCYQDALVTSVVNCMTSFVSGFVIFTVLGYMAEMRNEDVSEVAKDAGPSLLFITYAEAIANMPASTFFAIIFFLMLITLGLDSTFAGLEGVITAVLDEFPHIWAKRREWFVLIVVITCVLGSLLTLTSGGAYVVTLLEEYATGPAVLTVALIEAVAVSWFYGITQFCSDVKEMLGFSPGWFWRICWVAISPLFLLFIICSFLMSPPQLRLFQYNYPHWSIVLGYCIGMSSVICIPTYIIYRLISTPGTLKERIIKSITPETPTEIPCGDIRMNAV

CN(C)CCCC1(c2ccc(F)cc2)OCc2cc(C#N)ccc21 (stereo not shown) [citalopram]
Mean systemic arterial pressure (mice in normoxia): 87±7 mmHg

CCN[C@@H](C)Cc1cccc(C(F)(F)F)c1 [dexfenfluramine]
development of experimental hypoxic PH (experimental hypoxic PH): not to attenuate

O=C(c1ccc(F)cc1)C1CCN(CCn2c(=O)[nH]c3ccccc3c2=O)CC1 [ketanserin]
5-HT-induced increase in [3H]thymidine incorporation (mitogenic response to 5-HT) [1]: not affected | pressure (RVSP) response to acute hypoxia [2]: altered neither the response to acute hypoxia | Mean systemic arterial pressure (mice in normoxia): 83±4 mmHg

COc1ccc(NC(=O)c2ccc(-c3ccc(-c4noc(C)n4)cc3C)cc2)cc1N1CCN(C)CC1 [GR127935, 2′-methyl-4′-(5-methyl-[1,2,4]oxadiazol-3-yl)-biphenyl-4-carboxylic acid [4-methoxy-3-(4-methyl-piperazine-1-yl)-phenyl]amide]
5-HT-induced increase in [3H]thymidine incorporation (mitogenic response to 5-HT) [1]: not affected | pressure (RVSP) response to acute hypoxia [2]: abolished the pressure response to hypoxia | Mean systemic arterial pressure (mice in normoxia): 85±6 mmHg | muscularization of distal pulmonary vessels [3, 5]: did not affect | right ventricular hypertrophy (RV/LV+S ratio) ([3]; 2-week chronic hypoxia, daily treatment, vs hypoxic vehicle-treated mice (41.5±1.5%)): did not differ | hypoxia-induced increase in RVSP [3]: did not differ | protection against development of PH (rats): partial protection

CNCCC(Oc1ccc(C(F)(F)F)cc1)c1ccccc1 (stereo not shown) [fluoxetine]
5-HT-induced increase in [3H]thymidine incorporation (mitogenic response to 5-HT) [1]: completely abolished | baseline RVSP ([2]; 10 mg/kg/day by gavage, normoxic ventilation): did not alter | Mean systemic arterial pressure (mice in normoxia): 86±5 mmHg | muscularization of distal pulmonary vessels [3, 5]: markedly attenuated | hypoxia-induced increase in RVSP [3]: significantly attenuated

CC(C)(N)Cc1ccc(Cl)cc1 [chlorphentermine]
5-HTT substrate (5-HTT): 5-HTT substrates

Cl.Cn1ccc2cc3c(cc21)CCN3C(=O)Nc1cccnc1 [SB 206553, N-3-pyridinyl-3,5-dihydro-5-methyl-benzo[1,2-b:4,5-b′]dipyrrole-1(2H)-carboxamide hydrochloride]
5-HT-induced increase in [3H]thymidine incorporation (mitogenic response to 5-HT) [1]: not affected

NC1=NCC(c2ccccc2)O1 (stereo not shown) [a minorex]
5-HTT substrate (5-HTT): 5-HTT substrates

CCNC(C)Cc1cccc(C(F)(F)F)c1 (stereo not shown) [fenfluramine]
mitogenic effect [4]: mitogenic

NCCc1c[nH]c2ccc(O)cc12 [5-HT, 5-hydroxytryptamine]
[3H]thymidine incorporation ([1]; 5-HT 10^−8-10^−6 M): concentration-dependent increase
